Assay results taken from ChEMBL document CHEMBL1909046, “DrugMatrix in vitro pharmacology data”.

Assays:
[1] = DRUGMATRIX: ATPase, Na+/K+ enzyme inhibition (substrate: ATP); format: tissue-based, Sus scrofa, Heart; details: Not Active = under 50% inhibition at 10 µM
[2] = target: 5-hydroxytryptamine receptor 6 (Homo sapiens, UniProt P50406); format: cell membranes, HeLa, Membrane; note: in other assays of this panel Not Active means under 50% inhibition at 10 µM
Histamine H2 receptor = Histamine H2 receptor (Homo sapiens, UniProt P25021); format: cell membranes, CHO-K1, Membrane; details: for Ki: read-out: Ki; for all read-outs here: in other assays of this panel Not Active means under 50% inhibition at 10 µM
[3] = target: T1, Angiotensin-converting enzyme (Oryctolagus cuniculus, UniProt P12822); format: tissue-based, Lung;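 note: enzymatic inhibition of angiotensin-converting enzyme measured with FAPGG as the substrate; in other assays of this panel Not Active means under 50% inhibition at 10 µM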
T1 sequence (P12822 whole entry): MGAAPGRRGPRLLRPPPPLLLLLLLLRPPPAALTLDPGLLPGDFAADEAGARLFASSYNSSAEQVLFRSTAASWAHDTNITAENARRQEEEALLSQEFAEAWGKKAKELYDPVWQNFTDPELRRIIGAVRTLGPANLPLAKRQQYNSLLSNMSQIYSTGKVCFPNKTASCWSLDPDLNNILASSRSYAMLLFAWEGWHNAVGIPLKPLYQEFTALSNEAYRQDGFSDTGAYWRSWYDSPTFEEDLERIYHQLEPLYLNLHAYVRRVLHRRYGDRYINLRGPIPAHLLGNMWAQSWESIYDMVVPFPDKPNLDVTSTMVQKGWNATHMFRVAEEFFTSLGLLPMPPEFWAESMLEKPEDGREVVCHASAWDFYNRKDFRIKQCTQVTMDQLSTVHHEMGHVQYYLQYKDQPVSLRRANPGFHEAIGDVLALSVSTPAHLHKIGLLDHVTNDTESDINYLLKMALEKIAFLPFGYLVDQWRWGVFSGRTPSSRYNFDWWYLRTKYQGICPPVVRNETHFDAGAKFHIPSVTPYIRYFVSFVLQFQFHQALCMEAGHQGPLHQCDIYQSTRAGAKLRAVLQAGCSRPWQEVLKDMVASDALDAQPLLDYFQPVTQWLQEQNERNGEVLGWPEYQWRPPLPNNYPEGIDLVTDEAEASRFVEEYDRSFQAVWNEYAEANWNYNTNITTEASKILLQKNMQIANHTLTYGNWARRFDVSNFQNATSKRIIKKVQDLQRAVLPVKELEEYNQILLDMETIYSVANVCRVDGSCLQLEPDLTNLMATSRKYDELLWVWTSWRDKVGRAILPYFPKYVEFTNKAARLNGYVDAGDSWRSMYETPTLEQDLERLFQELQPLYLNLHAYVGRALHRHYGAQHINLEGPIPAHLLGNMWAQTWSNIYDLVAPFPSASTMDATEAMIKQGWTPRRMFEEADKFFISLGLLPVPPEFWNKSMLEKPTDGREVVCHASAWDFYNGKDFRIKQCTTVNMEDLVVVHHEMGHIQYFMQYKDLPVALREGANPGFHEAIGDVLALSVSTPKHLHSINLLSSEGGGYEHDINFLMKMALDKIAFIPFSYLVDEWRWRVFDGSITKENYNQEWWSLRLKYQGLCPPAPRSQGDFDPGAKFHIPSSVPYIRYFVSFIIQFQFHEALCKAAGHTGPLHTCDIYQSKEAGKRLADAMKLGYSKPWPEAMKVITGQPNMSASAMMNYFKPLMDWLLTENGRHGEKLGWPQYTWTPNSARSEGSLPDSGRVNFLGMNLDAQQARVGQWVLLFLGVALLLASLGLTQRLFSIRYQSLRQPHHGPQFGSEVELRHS

Adenosine receptor A1 = target: T2, Adenosine receptor A1 (Homo sapiens, UniProt P30542); format: cell membranes, CHO, Membrane; details: cho;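 note: radioligand binding assay at the adenosine A1 receptor, with DPCPX serving as the labelled ligand; in other assays of this panel Not Active means under 50% inhibition at 10 µM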
T2 sequence (P30542 whole entry): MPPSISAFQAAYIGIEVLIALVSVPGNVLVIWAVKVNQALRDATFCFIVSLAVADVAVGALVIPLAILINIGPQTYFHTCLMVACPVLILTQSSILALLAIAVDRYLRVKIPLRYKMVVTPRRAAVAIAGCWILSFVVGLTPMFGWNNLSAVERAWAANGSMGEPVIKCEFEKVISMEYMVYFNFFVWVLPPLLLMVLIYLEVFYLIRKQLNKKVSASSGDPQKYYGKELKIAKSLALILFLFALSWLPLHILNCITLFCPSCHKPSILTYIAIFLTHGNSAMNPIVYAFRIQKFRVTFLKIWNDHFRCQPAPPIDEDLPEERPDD

[4] = target: Voltage-gated inwardly rectifying potassium channel KCNH2 (Homo sapiens, UniProt Q12809); details: hek293; note: in other assays of this panel Not Active means under 50% inhibition at 10 µM
Sequence of Voltage-gated inwardly rectifying potassium channel KCNH2 (Q12809 whole entry): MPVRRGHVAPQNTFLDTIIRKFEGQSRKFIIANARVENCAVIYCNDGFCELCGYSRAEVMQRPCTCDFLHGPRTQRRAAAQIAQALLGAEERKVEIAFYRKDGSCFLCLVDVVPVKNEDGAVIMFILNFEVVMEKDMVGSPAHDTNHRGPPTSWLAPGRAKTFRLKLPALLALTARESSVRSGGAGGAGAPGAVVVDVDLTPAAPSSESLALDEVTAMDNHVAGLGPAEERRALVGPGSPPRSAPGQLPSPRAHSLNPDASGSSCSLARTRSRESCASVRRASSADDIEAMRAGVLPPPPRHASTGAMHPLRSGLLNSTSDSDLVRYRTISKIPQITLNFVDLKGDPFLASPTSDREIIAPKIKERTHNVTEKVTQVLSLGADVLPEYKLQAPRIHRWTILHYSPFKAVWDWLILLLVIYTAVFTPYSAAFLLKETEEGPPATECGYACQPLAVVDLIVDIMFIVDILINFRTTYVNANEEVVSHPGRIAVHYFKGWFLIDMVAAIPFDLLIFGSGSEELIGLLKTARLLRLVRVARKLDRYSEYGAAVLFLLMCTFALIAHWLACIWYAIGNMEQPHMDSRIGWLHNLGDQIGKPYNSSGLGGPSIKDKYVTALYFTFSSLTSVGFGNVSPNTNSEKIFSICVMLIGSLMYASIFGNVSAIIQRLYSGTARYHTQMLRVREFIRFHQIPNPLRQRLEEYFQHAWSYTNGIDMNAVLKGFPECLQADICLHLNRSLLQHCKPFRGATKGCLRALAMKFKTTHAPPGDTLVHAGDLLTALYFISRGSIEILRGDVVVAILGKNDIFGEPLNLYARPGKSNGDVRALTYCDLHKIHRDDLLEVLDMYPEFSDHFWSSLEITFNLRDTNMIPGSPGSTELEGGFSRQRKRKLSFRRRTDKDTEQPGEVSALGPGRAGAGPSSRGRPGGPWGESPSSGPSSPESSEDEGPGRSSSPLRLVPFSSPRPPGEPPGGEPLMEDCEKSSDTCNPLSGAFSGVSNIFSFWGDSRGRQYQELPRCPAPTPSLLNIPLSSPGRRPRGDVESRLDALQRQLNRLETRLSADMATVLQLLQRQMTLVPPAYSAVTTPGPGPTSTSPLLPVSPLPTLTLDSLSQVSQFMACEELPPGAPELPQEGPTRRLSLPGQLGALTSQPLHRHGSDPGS

Sequence of Histamine H2 receptor (P25021 whole entry): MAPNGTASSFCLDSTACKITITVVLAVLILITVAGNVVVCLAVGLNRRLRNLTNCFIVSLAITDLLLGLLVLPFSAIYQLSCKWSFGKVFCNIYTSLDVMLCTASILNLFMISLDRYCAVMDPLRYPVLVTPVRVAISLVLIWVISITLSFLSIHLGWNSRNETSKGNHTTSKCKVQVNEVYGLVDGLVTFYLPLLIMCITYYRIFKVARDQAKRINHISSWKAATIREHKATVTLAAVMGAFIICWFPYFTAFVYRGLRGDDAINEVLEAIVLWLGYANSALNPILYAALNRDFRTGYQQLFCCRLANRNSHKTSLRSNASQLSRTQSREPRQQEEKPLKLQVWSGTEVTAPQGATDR
Sequence of 5-hydroxytryptamine receptor 6 (P50406 whole entry): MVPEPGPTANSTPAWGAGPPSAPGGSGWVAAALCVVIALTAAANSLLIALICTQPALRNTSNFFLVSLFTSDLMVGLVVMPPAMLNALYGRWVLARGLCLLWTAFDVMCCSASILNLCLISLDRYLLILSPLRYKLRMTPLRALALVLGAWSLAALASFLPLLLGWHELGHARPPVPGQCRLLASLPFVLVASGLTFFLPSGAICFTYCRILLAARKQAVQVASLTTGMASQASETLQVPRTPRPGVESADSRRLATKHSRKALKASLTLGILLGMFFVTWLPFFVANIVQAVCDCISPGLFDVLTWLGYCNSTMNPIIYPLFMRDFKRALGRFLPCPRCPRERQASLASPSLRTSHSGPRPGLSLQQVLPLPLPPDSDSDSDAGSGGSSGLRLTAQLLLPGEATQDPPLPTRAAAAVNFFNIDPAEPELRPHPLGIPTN

CCCNC(C)C(=O)Nc1ccccc1C (centres undefined) [PRILOCAINE]
IC50 [1]: Not Active | Ki [1]: Not Active | IC50 ([2]; hela): Not Active | IC50 (Histamine H2 receptor; cho-k1): Not Active | IC50 [3]: Not Active | IC50 (Adenosine receptor A1): Not Active | IC50 [4]: Not Active | Ki [4]: Not Active

NS(=O)(=O)c1cc(C2(O)NC(=O)c3ccccc32)ccc1Cl (centres undefined) [CHLORTHALIDONE]
IC50 [1]: Not Active | Ki [1]: Not Active | IC50 ([2]; hela): Not Active | IC50 (Histamine H2 receptor; cho-k1): Not Active | IC50 [3]: Not Active | IC50 (Adenosine receptor A1): Not Active | IC50 [4]: Not Active | Ki [4]: Not Active

CCN(CC)CCCC(C)Nc1c2ccc(Cl)cc2nc2ccc(OC)cc12 (centres undefined) [QUINACRINE]
IC50 [1]: Not Active | Ki [1]: Not Active | IC50 ([2]; hela): Not Active | IC50 (Histamine H2 receptor; read-out: IC50): 3.54 µM | Ki (Histamine H2 receptor): 3.48 µM | IC50 [3]: Not Active | IC50 (Adenosine receptor A1): Not Active | IC50 [4]: Not Active | Ki [4]: Not Active

CN1CCC(=C2c3ccccc3CC(=O)c3sccc32)CC1 [KETOTIFEN]
IC50 [1]: Not Active | Ki [1]: Not Active | IC50 ([2]; read-out: IC50): 1.14 µM | Ki ([2]; read-out: Ki): 0.53 µM | IC50 (Histamine H2 receptor; read-out: IC50): 4.13 µM | Ki (Histamine H2 receptor): 4.06 µM | IC50 [3]: Not Active | IC50 (Adenosine receptor A1): Not Active | IC50 [4]: Not Active | Ki [4]: Not Active

Cc1c(O)cccc1C(=O)N[C@@H](CSc1ccccc1)[C@H](O)CN1C[C@H]2CCCC[C@H]2C[C@H]1C(=O)NC(C)(C)C
IC50 [1]: Not Active | Ki [1]: Not Active | IC50 ([2]; hela): Not Active | IC50 (Histamine H2 receptor; cho-k1): Not Active | IC50 [3]: Not Active | IC50 (Adenosine receptor A1): Not Active | IC50 [4]: Not Active | Ki [4]: Not Active

Cn1c(=O)c2c(ncn2C)n(C)c1=O [CAFFEINE]
IC50 [1]: Not Active | Ki [1]: Not Active | IC50 ([2]; hela): Not Active | IC50 (Histamine H2 receptor; cho-k1): Not Active | IC50 [3]: Not Active | IC50 [4]: Not Active | Ki [4]: Not Active

CC(C)NCC(O)c1ccccc1Cl (centres undefined) [CLORPRENALINE]
IC50 [1]: Not Active | Ki [1]: Not Active | IC50 ([2]; hela): Not Active | IC50 (Histamine H2 receptor; cho-k1): Not Active | IC50 [3]: Not Active | IC50 (Adenosine receptor A1): Not Active | IC50 [4]: Not Active | Ki [4]: Not Active

NC(=O)c1cccnc1 [NIACINAMIDE]
IC50 [1]: Not Active | Ki [1]: Not Active | IC50 ([2]; hela): Not Active | IC50 (Histamine H2 receptor; cho-k1): Not Active | IC50 [3]: Not Active | IC50 (Adenosine receptor A1): Not Active | IC50 [4]: Not Active | Ki [4]: Not Active

C[C@]12C=CC(=O)C=C1CC[C@H]1[C@@H]3C[C@@H](O)[C@](O)(C(=O)CO)[C@@]3(C)C[C@H](O)[C@@]12F [TRIAMCINOLONE]
IC50 [1]: Not Active | Ki [1]: Not Active | IC50 ([2]; hela): Not Active | IC50 (Histamine H2 receptor; cho-k1): Not Active | IC50 [3]: Not Active | IC50 (Adenosine receptor A1): Not Active | IC50 [4]: Not Active | Ki [4]: Not Active

CCn1cc(C(=O)O)c(=O)c2cc(F)c(N3CCNC(C)C3)c(F)c21 (centres undefined) [LOMEFLOXACIN]
IC50 [1]: Not Active | Ki [1]: Not Active | IC50 ([2]; hela): Not Active | IC50 (Histamine H2 receptor; cho-k1): Not Active | IC50 [3]: Not Active | IC50 (Adenosine receptor A1): Not Active

CC(C)(C(=O)O)c1ccc(C(O)CCCN2CCC(C(O)(c3ccccc3)c3ccccc3)CC2)cc1 (centres undefined) [FEXOFENADINE]
IC50 [1]: Not Active | Ki [1]: Not Active | IC50 ([2]; hela): Not Active | IC50 (Histamine H2 receptor; cho-k1): Not Active | IC50 [3]: Not Active | IC50 (Adenosine receptor A1): Not Active

C#C[C@]1(O)CC[C@H]2[C@@H]3CCC4=CC(=O)CC[C@]4(C)[C@H]3CC[C@@]21C [ETHISTERONE]
IC50 [1]: Not Active | Ki [1]: Not Active | IC50 ([2]; hela): Not Active | IC50 (Histamine H2 receptor; cho-k1): Not Active | IC50 [3]: Not Active | IC50 (Adenosine receptor A1): Not Active

CC(C)c1c(C(=O)Nc2ccccc2)c(-c2ccccc2)c(-c2ccc(F)cc2)n1CC[C@@H](O)C[C@@H](O)CC(=O)O [ATORVASTATIN]
IC50 [1]: Not Active | Ki [1]: Not Active | IC50 ([2]; hela): Not Active | IC50 (Histamine H2 receptor; cho-k1): Not Active | IC50 [3]: Not Active | IC50 (Adenosine receptor A1): Not Active

CN(C)CCC=C1c2ccccc2CCc2ccccc21 [AMITRIPTYLINE]
IC50 [1]: Not Active | Ki [1]: Not Active | IC50 ([2]; read-out: IC50): 0.14 µM | IC50 [3]: Not Active | IC50 (Adenosine receptor A1): Not Active

N=C(N)c1ccc(OCCCCCOc2ccc(C(=N)N)cc2)cc1 [PENTAMIDINE]
IC50 [1]: Not Active | Ki [1]: Not Active | IC50 ([2]; hela): Not Active | IC50 (Histamine H2 receptor; cho-k1): Not Active | IC50 [3]: Not Active | IC50 (Adenosine receptor A1): Not Active
